The results in this text go back to patent US7169424B2, “Mold inhibitor having reduced corrosiveness” (Kemin Industries, Inc., priority 2003, dated 2007).

The data set can be described thus: pH. The data set is classed as physicochemical. Particulars: free propionic acid, stated in the discussion.

SMILES strings stand for the structures.

Consider `CCC(=O)O` [free propionic acid, propionic acid], for which the pH result was “less than 2”.
